Data as given in publication PMC8150775, “Repositioning Azelnidipine as a Dual Inhibitor Targeting CD47/SIRPα and TIGIT/PVR Pathways for Cancer Immuno-Therapy” (Biomolecules, 2021).

Experiments:
CD47/SIRPα interaction = biological target: T1, CD47/SIRPα interaction (Homo sapiens, UniProt P78324); assay: Blocking assay by flow cytometry, preliminary screening at a single concentration, CD47/SIRPα; type: binding; details: preliminary test, single concentration of 100 μM
T1 construct: purchased ACRO Biosystem SIA-H5251; host or cells: CHOK1-CD47 cells (lenti-viral transfection)
Procedure: (§1) The abilities of small molecule inhibitors (SMIs) (purchased from TargetMol, Shanghai, China) to block the binding of SIRPα protein to CHOK1-CD47 cells or PVR protein to CHOK1-TIGIT cells were determined by flow cytometry, as previously reported. The SMIs at indicated concentrations were incubated with Fc-tagged SIRPα or PVR protein for 30 min at 4°C, followed by incubating with the indicated cells for another 30 min. Human SIRPα protein (SIA-H5251, ACRO Biosystem, Beijing, China), mouse SIRPα protein (SIA-M5258, ACRO Biosystem, Beijing, China), human PVR protein (CD5-H82F6, ACRO Biosystem, Beijing, China), and mouse PVR protein (50259-M03H, Sino Biological, Beijing, China) were used. PE-conjugated anti-human IgG antibody was used to detect the Fc protein bind to cells. Cells incubated with the Fc proteins and anti-human IgG antibody without the SMIs serve as the positive control. The mean fluorescent intensity (MFI) of each sample was detected and recorded by a flow cytometry. The blocking efficacy of the SMIs was calculated as the equation: (MFI of the positive control-MFI of the SMI)/MFI of the positive control × 100%.
The small molecule inhibitor could not only bind to the target; most importantly, it should interfere with the receptor–ligand interactions. Subsequently, the candidate inhibitors were screened by the blocking assays with the established CD47 and TIGIT over-expressing cell lines. The test was initialed with a preliminary screening of the candidates with a single concentration (Figure 2D). Generally, the SMI blocking efficacy to the CD47/SIRPα interaction was much higher than that of the TIGIT/PVR. […] Therefore, the SMI-F11 and SMI-F17 may exert dual blocking effects in the CD47/SIRPα and TIGIT/PVR pathways. Blocking assays with a concentration gradient of the SMI were further performed to validate the preliminary screening. […] The similar blocking assays with the mouse CD47 and TIGIT over-expressing cells were also performed. […] Considering that most pairs of the immune checkpoints interact with the corresponding ligand in parallel forms, the blocking assays with the PD-1/PD-L1 interaction system was also conducted to test the specificity.

mouse CD47/SIRPα = biological target: T2, mouse CD47/SIRPα (Mus musculus, UniProt P97797); assay: Blocking assay, mouse SIRPα protein binding to CHOK1-mCD47 cells; details: concentration gradient; read-out: IC50, blocking mouse CD47/SIRPα (mSirpα binding)
T2 construct: purchased ACRO Biosystem SIA-M5258; host or cells: soluble protein purchased; CD47 on CHOK1-mCD47 cells (lenti-viral transfection)
Procedure: as §1, with “(SIA-[…],” for “(SIA-H5251,”, “(SIA-[…],” for “(SIA-M5258,”, “(CD5-[…],” for “(CD5-H82F6,”, “(50259-[…],” for “(50259-M03H,”

B16-OVA cells = assay: Phagocytosis assay, BMDM co-cultured with GFP+ B16-OVA cells; type: cell-based, mouse; details: 20 μM, 4 h
Procedure: Bone marrow-derived macrophage (BMDM) cells were isolated from C57BL/6 or BALB/c mice and induced with 20 ng/mL of GM-CSF (Peprotech, Rocky Hill, CT, USA) for 7 days. Meanwhile, the medium was replaced with fresh medium containing the cytokine and the adherent cells were harvested. Phagocytosis assays were performed by a co-culture of the BMDM macrophages with carboxyfluorescein succinimidyl ester-labeled (CFSE^+) or GFP^+ tumor cells at a ratio of 1:4 in a serum-free medium at 37 °C for 4 h, in low-attachment 96-well tissue culture plates (Corning, New York, NY, USA). The cells were harvested and the macrophages were identified by a flow cytometry using anti-F4/80 antibody (eBioscience, San Diego, CA, USA). Then, 7-AAD (eBioscience) was used to exclude the dead cells. The effects of azelnidipine (20 μM) on phagocytosis by BMDM cells were tested, and the anti-CD47 antibody (clone: miap301) were used as the positive control. Phagocytosis rate was determined with the formulation: F4/80^+GFP^+ or F4/80^+CFSE^+ cells/ Total F4/80^+ cells.
Figure 4 Azelnidipine enhances macrophage mediated phagocytosis of the tumor cells. The effects of the azelnidipine on the phagocytosis of the macrophages were tested by a co-culture of the tumor cells and BMDM cell derived from C57BL/6 or BALB/c mice. […] GFP^+ or CFSE^+ BMDMs were detected by a flow cytometry. […]

[1] = test system: peripheral blood mononuclear cells; parameters: method as in PMID 29398679, PMID 20606305; details: cited from earlier work

T1 sequence (P78324 31-370 limits assumed): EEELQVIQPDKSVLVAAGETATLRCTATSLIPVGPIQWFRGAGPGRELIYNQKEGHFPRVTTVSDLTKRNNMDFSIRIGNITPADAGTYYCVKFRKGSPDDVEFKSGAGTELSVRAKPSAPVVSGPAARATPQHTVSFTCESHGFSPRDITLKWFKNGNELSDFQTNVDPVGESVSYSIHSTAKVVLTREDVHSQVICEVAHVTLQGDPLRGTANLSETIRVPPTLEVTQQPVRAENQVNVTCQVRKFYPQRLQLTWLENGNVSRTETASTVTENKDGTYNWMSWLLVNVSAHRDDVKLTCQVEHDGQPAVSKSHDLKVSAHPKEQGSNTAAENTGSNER
T2 sequence (P97797 32-373 limits assumed): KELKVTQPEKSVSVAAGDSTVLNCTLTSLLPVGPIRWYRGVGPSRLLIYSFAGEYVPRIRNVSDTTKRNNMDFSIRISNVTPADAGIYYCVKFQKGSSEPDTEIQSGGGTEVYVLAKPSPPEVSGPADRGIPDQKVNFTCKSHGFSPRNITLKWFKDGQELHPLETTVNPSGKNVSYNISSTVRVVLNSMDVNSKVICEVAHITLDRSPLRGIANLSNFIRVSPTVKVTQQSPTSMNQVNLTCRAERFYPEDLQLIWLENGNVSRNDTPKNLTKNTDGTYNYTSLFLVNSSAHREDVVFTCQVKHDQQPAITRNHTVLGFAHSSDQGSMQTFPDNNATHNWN

SMILES: CC1=C(C(=O)OC(C)C)C(c2cccc([N+](=O)[O-])c2)C(C(=O)OC2CN(C(c3ccccc3)c3ccccc3)C2)=C(N)N1 (stereo not shown) [Azelnidipine]
- blocking efficacy, CD47/SIRPα interaction (CD47/SIRPα interaction): more than 50%
- IC50 (mouse CD47/SIRPα): ~37 µM
- phagocytosis of B16-OVA cells by BMDM cells (B16-OVA cells): significantly enhance
- cytokine secretion of peripheral blood mononuclear cells [1]: inhibit
